{"source": "patent US20050205101A1", "about": "“Combined pharmocological and surgical method and system for the treatment of eye disorders” (priority 2002, published 2005)", "origin": "cited, not measured here", "key": {"presbyopic patient": {"system": "presbyopic patient", "conditions": "presbyopia, administration to the eye; Neufeld US 5,488,050"}, "[1]": {"system": "intraocular pressure (IOP)", "conditions": "used topically, elevated IOP; van Alphen 1976"}, "emmetropic eye": {"system": "emmetropic eye", "conditions": "typical concentration of about 4%"}}, "note": "Counter-ions that a name gives are not always drawn."}
{"smiles": "CC(C)(C)NC[C@H](O)COc1nsnc1N1CCOCC1", "note": "[Timolol]", "values": [{"measurement": "vision of presbyopic subject", "setting": "presbyopic patient", "result": "improved"}, {"measurement": "intraocular pressure (IOP)", "setting": "[1]", "result": "lower the IOP"}, {"measurement": "tonic accommodation", "setting": "accommodation in humans; unfocused eyes, subjects with mean age of 23, Nyberg 1976", "result": "net increase in tonic accommodation"}]}
{"smiles": "CC(C)(C)NC[C@H](O)COc1cccc2c1CCCC2=O", "note": "[levobunolol]", "values": [{"measurement": "intraocular pressure (IOP)", "setting": "[1]", "result": "lower the IOP"}]}
{"smiles": "CC(C)NCC(O)COc1ccc(CCOCC2CC2)cc1", "note": "(centres unmarked) [betaxolol]", "values": [{"measurement": "intraocular pressure (IOP)", "setting": "[1]", "result": "lower the IOP"}]}
{"smiles": "CC(=O)Oc1cc(C(C)C)c(OCCN(C)C)cc1C", "note": "[thymoxamine]", "values": [{"measurement": "gain in accommodation", "setting": "accommodation in humans; treated subjects, Zetterstrom 1987", "result": "transient gain in accommodation"}]}
{"smiles": "CC[C@@H]1C(=O)OC[C@@H]1Cc1cncn1C", "note": "[Pilocarpine hydrochloride, pilocarpine hydrochloride]", "values": [{"measurement": "adverse side effect on refraction", "setting": "emmetropic eye", "result": "becomes myopic"}, {"measurement": "near and distant vision", "setting": "emmetropic eye", "result": "enhanced near vision but at the sacrifice of distant vision"}]}
